Measurements taken from patent US9238657B2, “Cephalosporin having catechol group” (SHIONOGI & CO., LTD., priority 2008, dated 2016).
In brackets after ≈: the same amount, converted by molar mass. Read-outs that look alike come from different tables or passages of the source.

Columns and labels:
Assay in all cases: Minimum Inhibitory Concentration (MIC), agar plate incubation
Assay type in all cases: cell-based
[1] = system: Acinetobacter baumannii SR24396
Description: (§1) Measurement of Minimum Inhibitory Concentration (MIC, microg/ml) was conducted according to the standard method of the Japan Society for Chemotherapy, and the amount of bacteria for inoculation was 1000 cfu/spot, and sensitive disc medium was used as the test medium, and conducted using agar plate incubation.
(§2) In the tables, a unit of the values of inhibitory activity is microg/ml (μg/ml).
(§3) Bacterial strains described in the above tables and enzyme (beta-lactamase) produced thereby are explained in Table 7.

[2] = system: Klebsiella pneumoniae ATCC 700603
Description: as §1, §2, §3

[3] = system: Pseudomonas aeruginosa SR24
Description: as §1, §2, §3

[4] = system: Pseudomonas aeruginosa SR27060
Description: as §1, §2, §3

[5] = system: Stenotrophomonas maltophilia SR21970
Description: as §1, §2, §3

[6] = Acinetobacter baumannii SR24396 (no enzyme), 1000 cfu/spot, sensitive disc medium, read-out: Minimum Inhibitory Concentration (MIC)
[7] = ATCC700603, Klebsiella pneumoniae ATCC 700603 (SHV-18, ESBL producer strain), 1000 cfu/spot, sensitive disc medium, read-out: Minimum Inhibitory Concentration (MIC)
[8] = Pseudomonas aeruginosa SR24 (no enzyme, Ceftazidime sensitive strain), 1000 cfu/spot, sensitive disc medium, read-out: Minimum Inhibitory Concentration (MIC)
[9] = Pseudomonas aeruginosa SR27060 (IMP-1, MBL producer strain, carbapenem resistant), 1000 cfu/spot, sensitive disc medium, read-out: Minimum Inhibitory Concentration (MIC)
[10] = Stenotrophomonas maltophilia SR21970 (L-1, MBL producer strain, carbapenem resistant), 1000 cfu/spot, sensitive disc medium, read-out: Minimum Inhibitory Concentration (MIC)
[11] = Acinetobacter baumannii, SR24396, read-out: Minimum Inhibitory Concentration (MIC)
[12] = Klebsiella pneumoniae, ATCC700603, read-out: Minimum Inhibitory Concentration (MIC)
[13] = Pseudomonas aeruginosa, SR24, read-out: Minimum Inhibitory Concentration (MIC)
[14] = Pseudomonas aeruginosa, SR27060, read-out: Minimum Inhibitory Concentration (MIC)
[15] = Stenotrophomonas maltophilia, SR21970, read-out: Minimum Inhibitory Concentration (MIC)

MIC [1, 6] [mg/L]	MIC [2, 7] [mg/L]	MIC [3, 8] [mg/L]	MIC [4, 9] [mg/L]	MIC [5, 10] [mg/L]	SMILES	MIC [1, 11] [mg/L]	MIC [2, 12] [mg/L]	MIC [3, 13] [mg/L]	MIC [4, 14] [mg/L]	MIC [5, 15] [mg/L]
0.5 (≈ 0.665 µM)	0.5 (≈ 0.665 µM)	0.125 (≈ 0.166 µM)	0.25 (≈ 0.332 µM)		C[C@H](O/N=C(\C(=O)N[C@@H]1C(=O)N2C(C(=O)[O-])=C(C[N+]3(CCN(C)C(=O)c4ccc(O)c(O)c4)CCCC3)CS[C@H]12)c1nc(N)sc1Cl)C(=O)O [Compound I-25]					
1 (≈ 1.33 µM)	0.5 (≈ 0.665 µM)	0.125 (≈ 0.166 µM)	0.5 (≈ 0.665 µM)		C[C@H](O/N=C(\C(=O)N[C@@H]1C(=O)N2C(C(=O)[O-])=C(C[N+]3(CCCNC(=O)c4ccc(O)c(O)c4)CCCC3)CS[C@H]12)c1nc(N)sc1Cl)C(=O)O [Compound I-26]					
0.125 (≈ 0.17 µM)	0.5 (≈ 0.679 µM)	0.125 (≈ 0.17 µM)	0.25 (≈ 0.34 µM)	2 (≈ 2.72 µM)	C=C(O/N=C(\C(=O)N[C@@H]1C(=O)N2C(C(=O)[O-])=C(C[N+]3(CCNC(=O)c4ccc(O)c(O)c4Cl)CCCC3)CS[C@H]12)c1csc(N)n1)C(=O)O [II-1]					
0.125 (≈ 0.167 µM)	0.5 (≈ 0.666 µM)	0.125 (≈ 0.167 µM)	0.25 (≈ 0.333 µM)	0.5 (≈ 0.666 µM)	Nc1nc(/C(=N/OC2(C(=O)[O-])CC2)C(=O)N[C@@H]2C(=O)N3C(C(=O)O)=C(C[N+]4(CCNC(=O)c5ccc(O)c(O)c5Cl)CCCC4)CS[C@H]23)cs1 [II-2]					
					Nc1nc(/C(=N/O[C@H](C(=O)O)c2ccccc2)C(=O)N[C@@H]2C(=O)N3C(C(=O)[O-])=C(C[N+]4(CCNC(=O)c5ccc(O)c(O)c5Cl)CCCC4)CS[C@H]23)cs1 [II-3]	0.25 (≈ 0.312 µM)	0.125 (≈ 0.156 µM)	0.125 (≈ 0.156 µM)	0.5 (≈ 0.625 µM)	1 (≈ 1.25 µM)
					NC(=O)C[C@H](O/N=C(\C(=O)N[C@@H]1C(=O)N2C(C(=O)[O-])=C(C[N+]3(CCNC(=O)c4ccc(O)c(O)c4Cl)CCCC3)CS[C@H]12)c1csc(N)n1)C(=O)O [II-4]	0.25 (≈ 0.32 µM)	0.5 (≈ 0.64 µM)	0.125 (≈ 0.16 µM)	0.25 (≈ 0.32 µM)	1 (≈ 1.28 µM)
0.25	0.5	0.125	0.25	1	Nc1nc(/C(=N/O/C(=C/C(=O)O)C(=O)O)C(=O)N[C@@H]2C(=O)N3C(C(=O)O)=C(C[N+]4(CCNC(=O)c5ccc(O)c(O)c5Cl)CCCC4)CS[C@H]23)cs1 [II-10]					
					C[C@@H](C[N+]1(CC2=C(C(=O)O)N3C(=O)[C@@H](NC(=O)/C(=N\OC(C)(C)C(=O)[O-])c4csc(N)n4)[C@H]3SC2)CCCC1)NC(=O)c1ccc(O)c(O)c1Cl [II-12]	0.25 (≈ 0.326 µM)	0.25 (≈ 0.326 µM)	0.063 (≈ 0.0822 µM)	0.25 (≈ 0.326 µM)	1 (≈ 1.31 µM)
0.25 (≈ 0.333 µM)	0.25 (≈ 0.333 µM)	0.063 (≈ 0.084 µM)	0.5 (≈ 0.666 µM)	1 (≈ 1.33 µM)	CC(C)(O/N=C(\C(=O)N[C@@H]1C(=O)N2C(C(=O)O)=C(C[N+]3(CCNC(=O)c4ccc(O)c(O)c4Cl)CC=CC3)CS[C@H]12)c1csc(N)n1)C(=O)[O-] [II-13]					
0.125 (≈ 0.169 µM)	0.5 (≈ 0.677 µM)	0.125 (≈ 0.169 µM)	0.25 (≈ 0.339 µM)	2 (≈ 2.71 µM)	C[C@H](O/N=C(\C(=O)N[C@@H]1C(=O)N2C(C(=O)[O-])=C(C[N+]3(CCNC(=O)c4ccc(O)c(O)c4Cl)CCCC3)CS[C@H]12)c1csc(N)n1)C(=O)O [II-22]					
0.25 (≈ 0.326 µM)	0.125 (≈ 0.163 µM)	0.125 (≈ 0.163 µM)	0.25 (≈ 0.326 µM)	0.5 (≈ 0.653 µM)	CC(C)[C@H](O/N=C(\C(=O)N[C@@H]1C(=O)N2C(C(=O)[O-])=C(C[N+]3(CCNC(=O)c4ccc(O)c(O)c4Cl)CCCC3)CS[C@H]12)c1csc(N)n1)C(=O)O [II-23]					
0.125 (≈ 0.164 µM)	0.125 (≈ 0.164 µM)	0.063 (≈ 0.0824 µM)	0.5 (≈ 0.654 µM)	0.5 (≈ 0.654 µM)	Nc1nc(/C(=N/OC2(C(=O)O)CCC2)C(=O)N[C@@H]2C(=O)N3C(C(=O)[O-])=C(C[N+]4(CCNC(=O)c5ccc(O)c(O)c5Cl)CCCC4)CS[C@H]23)cs1 [II-24]					

SMILES	MIC [1, 6] [mg/L]	MIC [2, 7] [mg/L]	MIC [3, 8] [mg/L]	MIC [4, 9] [mg/L]	MIC [5, 10] [mg/L]	MIC [1, 11] [mg/L]	MIC [2, 12] [mg/L]	MIC [3, 13] [mg/L]	MIC [4, 14] [mg/L]	MIC [5, 15] [mg/L]
CC(C)[C@H](O/N=C(\C(=O)N[C@@H]1C(=O)N2C(C(=O)[O-])=C(C[N+]34CCC(CNC(=O)c5ccc(O)c(O)c5Cl)(CC3)CC4)CS[C@H]12)c1csc(N)n1)C(=O)[O-].[Na+] [II-25]	0.25	0.25	0.063	0.25	1					
